# From US11767322B2 (BRISTOL-MYERS SQUIBB COMPANY, priority 2020, dated 2023)
# Like-named read-outs stand apart in the source and are kept apart here.
# Columns and labels:
# [1] = biological target: GST-tagged PIK3Cδ in complex with PIK3R1 (Homo sapiens, UniProt O00329); experiment: PI3Kδ HTRF binding assay; details: HTRF probe displacement, 1 h at rt; read-out: PIK3CD IC50
# [2] = test system: MLKL phosphorylation in HT29-L23 human colorectal adenocarcinoma cells; experiment: MLKL phosphorylation high-content assay; assay type: cell-based
# [3] = biological target: T1, His-GST-TVMV-hRIPK1(1-324) (Homo sapiens, UniProt Q13546); experiment: biochemical; assay type: binding
# T1 construct: The coding region of human RIPK1(1-324) flanked by NdeI site at 5′ end; made in house; host or cells: Spodoptera frugiperda Sf9 insect cells (baculovirus, Bac-to-Bac)
# T1 sequence (Q13546 1-324): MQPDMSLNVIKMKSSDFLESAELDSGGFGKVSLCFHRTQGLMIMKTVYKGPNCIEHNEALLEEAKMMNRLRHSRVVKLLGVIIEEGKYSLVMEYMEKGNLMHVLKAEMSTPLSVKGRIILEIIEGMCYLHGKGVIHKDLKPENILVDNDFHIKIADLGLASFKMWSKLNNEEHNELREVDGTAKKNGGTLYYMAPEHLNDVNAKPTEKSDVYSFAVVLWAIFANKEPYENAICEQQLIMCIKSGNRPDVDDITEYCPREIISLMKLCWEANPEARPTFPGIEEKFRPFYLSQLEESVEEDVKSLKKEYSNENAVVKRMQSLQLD
# [4] = read-out: pMLKL IC50, HT29-L23 cells, necroptosis induced with TNFα, SMAC mimetic and Z-VAD, 6 h, maximal inhibition defined by Nec1s
# [5] = HTRF probe displacement, 1 h at rt, read-out: RIPK1 IC50
# [6] = Homo sapiens, 6 h, read-out: pMLKL IC50, HT29-L23 cells, necroptosis induced with TNFα, SMAC mimetic and Z-VAD, 6 h, maximal inhibition defined by Nec1s
# Chain of GST-tagged PIK3Cδ in complex with PIK3R1 (O00329 whole entry): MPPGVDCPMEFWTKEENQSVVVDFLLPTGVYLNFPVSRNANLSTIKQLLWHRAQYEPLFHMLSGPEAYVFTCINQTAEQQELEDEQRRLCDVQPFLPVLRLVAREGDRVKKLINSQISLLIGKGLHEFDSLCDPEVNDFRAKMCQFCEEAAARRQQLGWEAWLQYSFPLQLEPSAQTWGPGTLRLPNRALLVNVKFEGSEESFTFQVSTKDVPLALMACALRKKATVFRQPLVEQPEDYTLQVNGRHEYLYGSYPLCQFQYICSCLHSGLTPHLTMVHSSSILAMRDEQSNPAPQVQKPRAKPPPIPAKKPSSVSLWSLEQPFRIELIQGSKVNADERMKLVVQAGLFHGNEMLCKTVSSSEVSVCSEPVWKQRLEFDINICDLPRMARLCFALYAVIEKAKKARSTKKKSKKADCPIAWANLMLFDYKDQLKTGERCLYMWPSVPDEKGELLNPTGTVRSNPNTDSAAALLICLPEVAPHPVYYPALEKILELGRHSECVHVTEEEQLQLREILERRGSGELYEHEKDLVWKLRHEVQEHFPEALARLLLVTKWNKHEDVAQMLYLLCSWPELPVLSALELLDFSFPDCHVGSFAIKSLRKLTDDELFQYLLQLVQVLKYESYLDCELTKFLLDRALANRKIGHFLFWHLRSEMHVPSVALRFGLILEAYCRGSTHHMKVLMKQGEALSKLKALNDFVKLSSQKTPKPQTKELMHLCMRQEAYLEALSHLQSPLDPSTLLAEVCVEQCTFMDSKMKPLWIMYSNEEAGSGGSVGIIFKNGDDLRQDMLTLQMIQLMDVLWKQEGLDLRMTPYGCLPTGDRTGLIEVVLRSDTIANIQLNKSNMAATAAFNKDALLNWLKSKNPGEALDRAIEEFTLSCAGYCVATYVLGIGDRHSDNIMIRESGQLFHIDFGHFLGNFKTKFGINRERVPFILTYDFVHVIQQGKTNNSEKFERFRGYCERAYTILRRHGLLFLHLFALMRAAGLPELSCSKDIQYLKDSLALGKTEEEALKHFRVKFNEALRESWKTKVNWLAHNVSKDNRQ
# Chain of GST-tagged PIK3Cδ in complex with PIK3R1 (P27986 whole entry partner): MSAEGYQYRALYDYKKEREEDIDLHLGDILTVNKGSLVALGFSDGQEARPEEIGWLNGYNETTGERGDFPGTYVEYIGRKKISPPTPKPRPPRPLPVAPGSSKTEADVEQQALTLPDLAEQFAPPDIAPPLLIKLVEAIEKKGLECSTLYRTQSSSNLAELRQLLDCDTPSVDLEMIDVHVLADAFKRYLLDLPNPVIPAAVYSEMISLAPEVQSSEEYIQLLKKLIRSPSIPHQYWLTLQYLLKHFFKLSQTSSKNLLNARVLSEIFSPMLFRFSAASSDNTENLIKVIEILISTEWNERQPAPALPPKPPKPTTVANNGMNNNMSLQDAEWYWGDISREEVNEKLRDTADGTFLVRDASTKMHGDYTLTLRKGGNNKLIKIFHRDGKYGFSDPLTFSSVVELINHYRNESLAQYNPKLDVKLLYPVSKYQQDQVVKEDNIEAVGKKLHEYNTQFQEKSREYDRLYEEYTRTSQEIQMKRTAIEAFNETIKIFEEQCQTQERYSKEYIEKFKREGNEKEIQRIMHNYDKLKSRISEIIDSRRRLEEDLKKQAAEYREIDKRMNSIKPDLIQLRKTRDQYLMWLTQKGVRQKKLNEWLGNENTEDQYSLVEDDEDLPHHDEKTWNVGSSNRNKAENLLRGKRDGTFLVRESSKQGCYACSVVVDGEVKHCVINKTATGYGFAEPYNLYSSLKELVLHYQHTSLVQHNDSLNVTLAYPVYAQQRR
SMILES,IC50 [1],"IC50 [2, 4]","IC50 [3, 5]","IC50 [2, 6]","IC50 ([2]; read-out: pMLKL IC50, Table 22, compounds of the present invention)","IC50 ([3]; Table 22, compounds of the present invention, read-out: RPIK1 IC50)"
"Cc1ccc(-c2ccn3nc(N)nc3c2)c(F)c1C(=O)NC(C)CC(O)c1ccc(F)cc1 (single isomer, unassigned) [Example 38, 3-(2-amino-[1,2,4]triazolo[1,5-a]pyridin-7-yl)-2-fluoro-N-(4-(4-fluorophenyl)-4-hydroxybutan-2-yl)-6-methylbenzamide]",> 15 µM,6 nM,4.7 nM,–,–,–
"Cc1ccc(-c2ccn3nc(N)nc3c2)c(F)c1C(=O)NC(C)CC(O)c1ccc(F)cc1 (single isomer, unassigned) [Example 39, 3-(2-amino-[1,2,4]triazolo[1,5-a]pyridin-7-yl)-2-fluoro-N-(4-(4-fluorophenyl)-4-hydroxybutan-2-yl)-6-methylbenzamide]",> 15 µM,397 nM,163 nM,–,–,–
"Cc1ccc(-c2ccn3nc(N)nc3c2)c(F)c1C(=O)NCCC(O)C1CCCCC1 (single isomer, unassigned) [Example 41, 3-(2-amino-[1,2,4]triazolo[1,5-a]pyridin-7-yl)-N-(3-cyclohexyl-3-hydroxypropyl)-2-fluoro-6-methylbenzamide]",> 15 µM,7.7 nM,5.4 nM,–,–,–
"Cc1ccc(-c2ccn3nc(N)nc3c2)c(F)c1C(=O)NCCC(O)C1CCCCC1 (single isomer, unassigned) [Example 42, 3-(2-amino-[1,2,4]triazolo[1,5-a]pyridin-7-yl)-N-(3-cyclohexyl-3-hydroxypropyl)-2-fluoro-6-methylbenzamide]",> 15 µM,2.8 nM,1.3 nM,–,–,–
"Cc1ccc(-c2ccn3nc(N)nc3c2)c(F)c1C(=O)NCCC(O)c1ccc(F)cc1 (single isomer, unassigned) [Example 50, 3-(2-amino-[1,2,4]triazolo[1,5-a]pyridin-7-yl)-2-fluoro-N-(3-(4-fluorophenyl)-3-hydroxypropyl)-6-methylbenzamide]",> 15 µM,–,0.3 nM,1.9 nM,–,–
"Cc1ccc(-c2ccn3nc(N)nc3c2)c(F)c1C(=O)NCCC(O)c1ccc(F)cc1 (single isomer, unassigned) [Example 51, 3-(2-amino-[1,2,4]triazolo[1,5-a]pyridin-7-yl)-2-fluoro-N-(3-(4-fluorophenyl)-3-hydroxypropyl)-6-methylbenzamide]",> 15 µM,1.8 nM,3.7 nM,–,–,–
"[2H]C([2H])(CC([2H])(O)c1ccc(Cl)cc1)NC(=O)c1c(C)ccc(-c2ccn3nc(N)nc3c2)c1F (single isomer, unassigned) [Example 53, 3-(2-amino-[1,2,4]triazolo[1,5-a]pyridin-7-yl)-N-(3-(4-chlorophenyl)-3-hydroxypropyl-1,1,3-d3)-2-fluoro-6-methylbenzamide]",14 µM,0.9 nM,1.2 nM,–,–,–
"[2H]C([2H])(CC([2H])(O)c1ccc(Cl)cc1)NC(=O)c1c(C)ccc(-c2ccn3nc(N)nc3c2)c1F (single isomer, unassigned) [Example 54, 3-(2-amino-[1,2,4]triazolo[1,5-a]pyridin-7-yl)-N-(3-(4-chlorophenyl)-3-hydroxypropyl-1,1,3-d3)-2-fluoro-6-methylbenzamide]",> 15 µM,1 nM,2.7 nM,–,–,–
"Cc1ccc(-c2ccn3nc(N)nc3c2)c(F)c1C(=O)NCCC(O)c1ccc(C(F)(F)F)cc1 (single isomer, unassigned) [Example 56, 3-(2-amino-[1,2,4]triazolo[1,5-a]pyridin-7-yl)-2-fluoro-N-(3-hydroxy-3-(4-(trifluoromethyl)phenyl)propyl)-6-methylbenzamide]",> 15 µM,0.4 nM,4.5 nM,–,–,–
"Cc1ccc(-c2ccn3nc(N)nc3c2)c(F)c1C(=O)NCCC(O)c1ccc(C(F)(F)F)cc1 (single isomer, unassigned) [Example 57, 3-(2-amino-[1,2,4]triazolo[1,5-a]pyridin-7-yl)-2-fluoro-N-(3-hydroxy-3-(4-(trifluoromethyl)phenyl)propyl)-6-methylbenzamide]",> 15 µM,1.9 nM,3.1 nM,–,–,–
"Cc1ccc(-c2ccn3nc(N)nc3c2)c(F)c1C(=O)NCCC(C)(O)c1ccc(Cl)cc1 (single isomer, unassigned) [Example 59, 3-(2-amino-[1,2,4]triazolo[1,5-a]pyridin-7-yl)-N-(3-(4-chlorophenyl)-3-hydroxybutyl)-2-fluoro-6-methylbenzamide]",> 15 µM,–,2.5 nM,1.2 nM,–,–
"Cc1ccc(-c2ccn3nc(N)nc3c2)c(F)c1C(=O)NCCC(C)(O)c1ccc(Cl)cc1 (single isomer, unassigned) [Example 60, 3-(2-amino-[1,2,4]triazolo[1,5-a]pyridin-7-yl)-N-(3-(4-chlorophenyl)-3-hydroxybutyl)-2-fluoro-6-methylbenzamide]",> 15 µM,1.3 nM,1 nM,–,–,–
"COc1cc(Cl)ccc1C(O)CCNC(=O)c1c(C)ccc(-c2ccn3nc(N)nc3c2)c1F (single isomer, unassigned) [Example 65, 3-(2-amino-[1,2,4]triazolo[1,5-a]pyridin-7-yl)-N-(3-(4-chloro-2-methoxyphenyl)-3-hydroxypropyl)-2-fluoro-6-methylbenzamide]",> 15 µM,–,28 nM,27 nM,–,–
"Cc1ccc(-c2ccn3nc(N)nc3c2)c(F)c1C(=O)NCCC(O)c1ccc(F)c(F)c1 (single isomer, unassigned) [Example 67, 3-(2-amino-[1,2,4]triazolo[1,5-a]pyridin-7-yl)-N-(3-(3,4-difluorophenyl)-3-hydroxypropyl)-2-fluoro-6-methylbenzamide]",> 15 µM,1.3 nM,4.4 nM,–,1.3 nM,4.4 nM
"Cc1ccc(-c2ccn3nc(N)nc3c2)c(F)c1C(=O)NCCC(O)c1ccc(Cl)cc1F (single isomer, unassigned) [Example 68, 3-(2-amino-[1,2,4]triazolo[1,5-a]pyridin-7-yl)-N-(3-(4-chloro-2-fluorophenyl)-3-hydroxypropyl)-2-fluoro-6-methylbenzamide]",> 15 µM,–,3.6 nM,0.6 nM,–,–
"Cc1ccc(-c2ccn3nc(N)nc3c2)c(F)c1C(=O)NCCC(O)c1ccc(Cl)cc1F (single isomer, unassigned) [Example 69, 3-(2-amino-[1,2,4]triazolo[1,5-a]pyridin-7-yl)-N-(3-(4-chloro-2-fluorophenyl)-3-hydroxypropyl)-2-fluoro-6-methylbenzamide]",> 15 µM,0.4 nM,1.4 nM,–,–,–
"Cc1ccc(-c2ccn3nc(N)nc3c2)c(F)c1C(=O)NCCC(O)c1ccccc1F (single isomer, unassigned) [Example 70, 3-(2-amino-[1,2,4]triazolo[1,5-a]pyridin-7-yl)-2-fluoro-N-(3-(2-fluorophenyl)-3-hydroxypropyl)-6-methylbenzamide]",> 15 µM,8.1 nM,11 nM,–,–,–
"Cc1ccc(-c2ccn3nc(N)nc3c2)c(F)c1C(=O)NCCC(O)c1ccccc1F (single isomer, unassigned) [Example 71, 3-(2-amino-[1,2,4]triazolo[1,5-a]pyridin-7-yl)-2-fluoro-N-(3-(2-fluorophenyl)-3-hydroxypropyl)-6-methylbenzamide]",> 15 µM,21 nM,18 nM,–,–,–
